The values that follow come from PMC8541353, “A Novel Phenylpyrrolidine Derivative: Synthesis and Effect on Cognitive Functions in Rats with Experimental Ishemic Stroke” (Molecules, 2021).

Common to all, as to type: in vivo, Wistar rats
Experiment [1] relates to intact animals. Put plainly: Open field test (OFT) in intact animals. Particulars: intact rats, day 7; compound 1 125 mg kg^−1, piracetam 300 mg kg^−1, intraperitoneally for 5 days; mean and SD. An excerpt:
(§1) Before the study, the intact animals were subjected to the hole-board test (HBT), weighed, and stratified into three uniform groups in terms of orientational/exploratory activity and weight. […] On day 7, we performed OFT (open field test), followed by LDB (light—dark box test) on day 8 (Scheme 3, Step 1). These tests assess the activity and describe the behavior of the animals. According to OFT, compound 1 decreased the vertical activity and the immobility time compared to the saline-treated group (Table 2).
(§2) Before conducting the experiments, the animals underwent the HBT and were allocated to groups based on their behavior score and weight. Kullback–Leibler divergence method for allocation based on two numerical parameters was used for allocation. We used a sum score for behavior tests and weight. Subsequently, two experimental series were performed. In the first series, rat behavior without stroke modeling after injection of compound 1 (experimental group, n = 10) or saline (control group, n = 10) was evaluated (Scheme 3a). […] Compound 1 was injected at a dose of 125 mg kg^−1 and an injection volume of 0.5 mL. […] For the experiments, the following predetermined exclusion criteria were used: (1) incomplete MCAO indicated by an incomplete lesion on magnetic resonance imaging (MRI) after 24 h [n = 4]and (2) post-operative weight loss of > 20% and severe animal condition within the first post-stroke 48 h [n = 3]. Animals reached humane endpoints based on the absence of nociceptive reflex withdrawal responses, hypothermia, and heart rate reduction to 100–150 beats min^−1. As steroid treatment could have influenced the experiment, rats were humanely euthanized according to the ethical protocol. The experiment design is presented in Scheme 3b.
(§3) In the first experimental series, the following test systems were used: HBT (OpenScience, Russia), OFT (OpenScience), and LDT (OpenScience). The design for the second experimental series was as follows. All rat behavioral changes were evaluated during the four weeks after stroke simulation. Individuals who performed these procedures were double-blinded. General neurological disorders were assessed using the modified neurological severity score (mNSS). Motor and cognitive impairment were evaluated using the following functional tests: BWT (OpenScience), HBT (OpenScience), and OFT (OpenScience). The BWT was performed between postoperative days 12 and 14. In this test, motor dysfunction in all four limbs was evaluated; specifically, the number of steps, errors, and slides were counted. The overall score was calculated using the following formula: score = errors + 0.5 × slides × 100/total number of steps [47]. The beam apparatus consists of 165 cm beams with a flat surface of 10 mm or 6 mm width, resting 100 cm above the table top on two poles. A black box is placed at the end of the beam as the finish point. Nesting material from home cages is placed in the black box to attract the rat to the finish point. A lamp (with 60-watt light bulb) is used at the start to stimulate the animals to move towards the end.

The subject of experiment [2] is intact animals. Put plainly: Light-dark box test (LDB) in intact animals. Conditions: intact rats, day 8; compound 1 125 mg kg^−1, piracetam 300 mg kg^−1, intraperitoneally for 5 days; mean and SD.
From the text: as §1, §2, §3

In experiment [3] the test system is rats with MCAO. As to the kind of experiment: Neurological deficit (mNSS) in MCAO model. Conditions: 24 h to day 7. As to the method:
A MCAO animal model was used to characterize the effects of compound 1 on the development and resolution of stroke. At the baseline, we performed the MRI and hole-board test before MCAO surgery. Once animals recovered after the surgery, we stratified them based on their background psycho-emotional status and performed a control MRI to access whether the occlusion was sufficient or not. […] From 24 h to day 7, the neurological status was assessed daily according to the neurological scale (mNSS). By the end of day 7, animals underwent MRI. In addition, MRI was performed on days 14 and 28 (Shceme 3)The hole-board test was repeated on days 10 and 24. The degree of motor function impairment, the deficit of exploratory behavior, and the recovery process were assessed in the beam walking test (BWT), which was performed twice on days 12 and 14. An open field test was carried out on days 16 and 26. […]
In the first experimental series, the following test systems were used: HBT (OpenScience, Russia), OFT (OpenScience), and LDT (OpenScience). […] All rat behavioral changes were evaluated during the four weeks after stroke simulation. […] General neurological disorders were assessed using the modified neurological severity score (mNSS). Motor and cognitive impairment were evaluated using the following functional tests: BWT (OpenScience), HBT (OpenScience), and OFT (OpenScience). […]

Experiment [4] relates to rats with MCAO. Put plainly: Beam walking test (BWT) after MCAO. Particulars: for Animals that failed to train for the BWT test: after MCAO, days 12–14; for Left forelimb score / Left hindlimb score / Right forelimb score / Right hindlimb score: day 14 after MCAO, mean ± SD. More on the design: key to Left forelimb score / Right forelimb score / Left hindlimb score / Right hindlimb score: score = errors + 0.5 × slides × 100/total number of steps. As for the experimental part: A MCAO animal model was used to characterize the effects of compound 1 on the development and resolution of stroke. At the baseline, we performed the MRI and hole-board test before MCAO surgery. Once animals recovered after the surgery, we stratified them based on their background psycho-emotional status and performed a control MRI to access whether the occlusion was sufficient or not. […] From 24 h to day 7, the neurological status was assessed daily according to the neurological scale (mNSS). By the end of day 7, animals underwent MRI. In addition, MRI was performed on days 14 and 28 (Shceme 3)The hole-board test was repeated on days 10 and 24. The degree of motor function impairment, the deficit of exploratory behavior, and the recovery process were assessed in the beam walking test (BWT), which was performed twice on days 12 and 14. An open field test was carried out on days 16 and 26.
The increased locomotor activity, expanded orientational research activity, and reduced anxiety and depressive behavior in rats treated with compound 1 highlighted the possible benefits of the compound in post-ischemic stroke management. As stroke affects not only locomotor activity but also the cognitive behavior, we conducted an additional beam walking test. It is proven that depression and anxiety in the post-stroke period increase the risk of mortality and affect the functional recovery of patients. There is a direct relationship between the severity of cognitive deficits, patients’ survival, and their successful social integration. Conventionally, BWT is aimed at finding motor deficits on the contralateral side of the brain lesion. However, based on the test methodology, which was testing animals before surgery and on the 12th–14th days after surgery, we can indirectly conclude whether the memory trace is preserved or lost. […] Most of the animals from the saline group sat still and one rat fell. Since the hippocampus, which is a structure responsible for the formation of both […] and long-term memory, is involved in the pathological process of ischemia, in rats, we hypothesized that the ability to reproduce and form a memorable trace can be also affected in our MCAO model. According to MRI data, the hippocampus was indeed affected by MCAO. Thus, compound 1 possibly helped to restore neural connections in the hippocampus as quickly as possible.
as §3

Consider `O=C(CN1CC(c2ccccc2)CC1=O)NCCS(=O)(=O)[O-].[K+]` (stereo not shown) [Compound 1, potassium 2-[2-(2-oxo-4-phenylpyrrolidin-1-yl)acetamido]ethane-1-sulfonate], for which, in experiment [1], the “Crossings (n)” value is on record as 53.7 ± 10.3 n, the “Grooming time” value was found to be 40.6 ± 33.2 s, the “Immobility duration” value amounted to 12.8 ± 8.4 s and the “Number of center sector crossings (center) (n)” value stood at 1.6 ± 0.6 n. Further, the “Vertical activity (n)” value in experiment [1] amounted to 10.3 ± 4.3 n. For the same molecule, in experiment [2], the “Number of crossings (n)” value was determined as 2.9 ± 1.2 n, the “Number of peeking out events (n)” value was determined as 5.2 ± 2.8 n and the “Time spent in the light compartment” value was 16.5 ± 8.3 s. Besides, the “Regression of neurological symptoms” value in experiment [3] is 35%. Also, in experiment [4], the “Animals that failed to train for the BWT test” value was “No animals failed”, the Left forelimb score amounted to 42.2 ± 28.0, the Left hindlimb score was found to be 28.8 ± 15.3 and the Right forelimb score is on record as 11.6 ± 13.8. Further, in experiment [4], the Right hindlimb score is on record as 45.8 ± 30.4.

On to `NC(=O)CN1CCCC1=O` [Piracetam, reference compound], for which, in experiment [1], the “Crossings (n)” value is 65.4 ± 20.4 n, the “Grooming time” value came out at 14.4 ± 9.4 s, the “Immobility duration” value came to 16.0 ± 10.4 s and the “Number of center sector crossings (center) (n)” value was 1.4 ± 1.2 n. In experiment [1], the “Vertical activity (n)” value is 15.9 ± 7.5 n. For the same molecule, in experiment [2], the “Number of crossings (n)” value turned out to be 3.7 ± 1.6 n, the “Number of peeking out events (n)” value was found to be 4.8 ± 2.5 n and the “Time spent in the light compartment” value is 26.3 ± 13.4 s. The “Regression of neurological symptoms” value in experiment [3] came out at 25%. For the same molecule, in experiment [4], the “Animals that failed to train for the BWT test” value was “more than half of the animals and five”; the Left forelimb score is on record as 32.8 ± 26.4; the Left hindlimb score came to 24.8 ± 22.2; the Right forelimb score is 12.4 ± 16.0. Further, the Right hindlimb score in experiment [4] worked out at 36.0 ± 30.4.
